Drawing on publication PMC11440583 (2024), this text covers association constant, binding and ΔTm for 1 compound.

Experiment [1] deals with Cy5-HIF-1α (DNA, G4) GCGCGGGGAGGGGAGAGGGGGCGGGAGCGCG
The experiment is described as follows: microscale thermophoresis (ligand-induced fluorescence quenching). Conditions: 100 mM KCl; 50 mM Tris pH 7.2, 0.05% Tween 20; 50 nM G4. For orientation: In MST a laser heats a spot of the sample, and binding alters the fluorescence response.

Experiment [2] relates to F-Tel22-Na+-T (DNA, G4) AGGGTTAGGGTTAGGGTTAGGG
Description: FRET melting with dsDNA competitor. Conditions: 40 mM NaCl; 10 mM sodium cacodylate pH 7.2; 2 μM compound, 0.2 μM G4; 0-20 μM dsDNA.

The test system of experiment [3] is c-MYC Pu22 (DNA, G4) TGAGGGTGGGTAGGGTGGGTAA
The experiment is described as follows: CD (or UV) thermal melting. Particulars: 5 mM KCl; 10 mM Tris pH 7.2; 8 μM compound, 2 μM DNA.

Experiment [4] relates to c-MYC Pu24T (c-MYC Pu24-T; c-MYC Pu24) (DNA, G4) TGAGGGTGGTGAGGGTGGGGAAGG
Description: CD (or UV) thermal melting. Conditions: 5 mM KCl; 10 mM Tris pH 7.2; 8 μM compound, 2 μM DNA.

Experiment [5] concerns VEGF (DNA, G4) GGGAGGGTTGGGGTGGG
The experiment is described as follows: CD (or UV) thermal melting. Particulars: 5 mM KCl; 10 mM Tris pH 7.2; 8 μM compound, 2 μM DNA.

The test system of experiment [6] is Tel22 (Tel22-Na+ antiparallel; Tel22-K+ hybrid) (DNA, G4) AGGGTTAGGGTTAGGGTTAGGG
Description: CD (or UV) thermal melting. Particulars: 10 mM Tris pH 7.2, 8 μM compound, 2 μM DNA.

Experiment [7] has the same test system. The experiment is described as follows: 1H NMR titration. Particulars: up to 2.0 equiv compound.
Experiment [8] deals with Bom17 (DNA, G4) GGTTAGGTTAGGTTAGG
The experiment is described as follows: CD (or UV) thermal melting. Particulars: 15 mM KCl; 10 mM Tris pH 7.2; 8 μM compound, 2 μM DNA.

For experiment [9], the system named is c-MYC Pu22 (DNA, G4) TGAGGGTGGGTAGGGTGGGTAA
Description: 1H NMR titration. Conditions: K+; 0-1.5 equiv compound.

For experiment [10], the system named is TBA (DNA, G4) GGTTGGTGTGGTTGG
The experiment is described as follows: CD (or UV) thermal melting. Conditions: 5 mM KCl; 10 mM Tris pH 7.2; 8 μM compound, 2 μM DNA.

Experiment [11] relates to dsDNA (DNA, duplex) CAATCGGATCGAATTCGATCCGATTG
The experiment is described as follows: CD (or UV) thermal melting. Conditions: 5 mM KCl; 10 mM Tris pH 7.2; 8 μM compound, 2 μM DNA.

By ΔTm is commonly meant the shift of the melting midpoint relative to a reference. Consider `NCCNCCNC(=O)c1cc(F)c(/N=N/c2c(F)cc(-c3ccncc3)cc2F)c(F)c1`, for which, in experiment [1], the association constant is on record as 2.8 × 10^5 M^–1. In addition, the binding result in experiment [2], in [7] and in experiment [9] was “yes” each time. In addition, the ΔTm in [3] is 19.2 °C; in [4], 4.2 °C; in experiment [5] it was 14.7 °C; in [6] (5 mM KCl), 9.9 °C; in experiment [6] (15 mM NaCl), 5.8 °C; in experiment [8] it was 8.8 °C. Moreover, the ΔTm came out at 6.3 °C in experiment [10] and 1.0 °C in experiment [11].
